Key:
[1] = tested on: cell proliferation; settings: value used to set treatment concentration; read-out: proliferative IC50; cited from earlier work
[2] = tested on: Semliki Forest Virus 4 (SFV4); experiment: SFV4 titre by plaque assay (BHK-21 cells infected, titrated on BSR cells); format: cell-based; settings: 2 μM, MOI >10, 24 hrs, initial tests
Protocol: (A) SINV and SFV4: BHK-21 cells were plated. The following day 2 μM PF-9366 or DMSO control was added to media. After 3 hrs cells were infected with SINV or SFV4 (MOI >10). After 24 hrs cells were harvested by scraping. Cells were either pelleted for western blot or freeze/thawed for titration. To titre: BSR cells were plated and the following day infected with 10-fold dilutions, at 1 hpi cells were overlayed with LMA in 2×MEM (+5% FCS). At 72 hpi cells were fixed and stained with toluidine blue.
For Alphavirus infections BHK-21 cells were infected with either SINV or SFV-4 at a multiplicity of infection (MOI) greater than 10, diluted in appropriate medium. At 1 hour post infection (hpi) medium was removed, cells were washed twice with phosphate-buffered saline (PBS), and fresh medium was added. At 24 hpi supernatants were harvested for virus titre by plaque assay.
For SINV and SFV4, confluent BSR cell monolayers were infected with 10-fold dilutions of samples. At 1 hpi cells were overlayed with low melting-point agarose in 2×MEM (+5% FCS). Cells were fixed at 72 hpi and stained with toluidine blue, allowing plaques to be counted.
TSG101 inhibitor Ilaprazole (Sigma-Aldrich) was diluted in 100% DMSO. […]

[3] = tested on: BKPyV; experiment: Fluorescence focus unit (FFU) assay of infectious BKPyV from treated RPTE/TERT1 cells; format: cell-based, BK polyomavirus; settings: for reduction in infectious virus production: BKPyV MOI 1
Protocol: (B) Effect of PF-9366 on viral replication: Cells were infected with BKPyV (MOI 1) in media containing appropriate drug concentrations. At 1 hpi infectious media was removed, cells were washed and fresh media with appropriate drug concentrations was added. At 48 hpi cells were harvested and infectious BKPyV was measured by FFU assay. n=3.
Cells were treated with MAT2A inhibitors at 1 hr post infection and were harvested at 48 hr post infection at MOI 1. (A) Total infectious BKPyV synthesis expressed as fold change to DMSO control (FFU titre assay). (B) Total viral protein expression (LTAg and VP1) was analysed by western blot. Tubulin was used as loading control. All error bars represent SEM. Two sample paired T-test was used to determine significance (*p<0.05; **p<0.01; ***p<0.001, ****p<0.0001), all numerical data shown were obtained over 2 independent experiments.
RPTE/hTERT cells were treated with inhibitors at 1 hr post infection (PI), infected at MOI 1. (A) Viral growth curves using FFU titre assay in drug treated and untreated cells infected with BKPyV at MOI 1 for 48 hr PI, 72 hr PI and 96 hr PI. (B) Total viral protein expression (LTAg and VP1) from drug treatments and untreated control was analysed by western blot with samples harvested at 48 hr PI and 96 hr PI. Tubulin was used as loading control. All error bars represent SEM. All numerical data shown were obtained over 2 independent experiments.
The ability for PF-9366 to inhibit the production of infectious virus was then investigated. RPTE/TERT1 cells were once again treated with a concentration range of PF-9366 or DMSO as a control prior to infection, and as before, infected with BKPyV (MOI 1) then washed and media replaced at 1 hpi. At 48 hpi total virus was harvested from each condition and an FFU assay was conducted to determine BKPyV virus titre (FIG. 3B).
For BKPyV infections, RPTE/TERT1, RPTE/TERT1-Cas9 or RPTE/TERT1 MAT2A KO cells were infected with BKPyV at either a multiplicity of infection (MOI) of 5 for growth curves or an MOI of 3 or 1 for all other experiments, diluted in appropriate medium. At 1 hour post infection (hpi) medium was removed, cells were washed twice with phosphate-buffered saline (PBS), and fresh medium was added with or without inhibitors. At 24, 48, 72 or 96 hpi cells were either harvested for western blot, RT qPCR or virus titre by FFU assay, or fixed for immunofluorescence analysis.
FFU assays were used to determine the concentration of infectious BKPyV in experimental samples. RPTE/TERT1 cells were infected with sample dilutions, fixed at 48 hpi in 3% formaldehyde, and immunostained for VP1 expression as described in Evans et al. (Open Biol. 2015 August; 5 (8): 150041).
Example 1: PF-9366 (Sigma-Aldrich) and AG-270 (kindly supplied by Astra Zeneca) were diluted in 100% DMSO. Cells were drug treated at a range of concentrations in REBM supplemented with BulletKit (Lonza) for 3 hours prior to infection. Cells were infected with BK-Dunlop in media and appropriate drug dilution. At 1 hpi infectious media was removed, cells gently washed with PBS and media containing appropriate drug dilutions was added. At 48 hpi cells were either fixed in 3% formaldehyde for microscopy, or harvested by scraping up into fresh drug-free media.
TSG101 inhibitor Ilaprazole (Sigma-Aldrich) was diluted in 100% DMSO. Cells were treated at a range of inhibitor concentrations and combinations, in appropriate media for the cell type used, for either 3 hours prior to infection (HSV-1, Alphavirus and Flavivirus infections) or 1 hour post infection (BKPyV infection).

[4] = tested on: Zika American Strain; experiment: Western blot of Zika E protein in VERO E6 cells, American strain; format: cell-based, Zika virus; settings: 20 μM, MOI >10, 48 hrs
Protocol: (B) Zika: VERO E6 cells were plated. The following day 20 μM PF-9366 or DMSO control was added to media. After 3 hrs cells were infected with Zika African strain, American Strain or Mock infected (MOI >10). After 48 hrs cells were harvested by scraping, pelleted and lysed into lysis buffer. Western blot was then conducted on the lysed cells. Protein embedded SDS-PAGE gels were transferred to membranes overnight and then probed for Zika E protein and GAPDH as a control.
For Flavivirus infections VERO E6 cells were infected with either African (Afn) or American (Amer) Zika at a multiplicity of infection (MOI) greater than 10, diluted in appropriate medium. At 1 hour post infection (hpi) medium was removed, cells were washed twice with phosphate-buffered saline (PBS), and fresh medium was added. At 48 hpi cells were either harvested for western blot.
Cell lysate preparation and western blots were performed as described in Ren et al. (J Gen Virol. 2012 February; 93 (Pt 2): 319-329). Primary antibodies used were ab53977 (VP1), PAb416 (LTAg), sc-166452 (MAT2A/1A), ab110226 (VP16), sc-53070 (ICP0), anti-Zika E Protein, and either anti-GAPDH or anti-tubulin as a loading control, followed by IRDye 680LT-, or IRDye 800CW-conjugated secondary antibodies. Imaging was performed using the LI-COR Odyssey Infrared Imaging system. Quantification was performed using LI-COR Image Studio Software. […]

Row | Structure (SMILES) | IC50 [1] [µM] | reduction in viral titre (SFV4) [2] | reduction in infectious virus production ([3]; 2.5 μM (lowest concentration), 48 hpi) [%] | reduction in viral titre for BKPyV ([3]; 2.5 μM, MOI 1, 48 hpi) | reduction in infectious virus production ([3]; 40 μM (maximum), 48 hpi) [%] | viral protein expression (Zika E protein), American strain [4] | inhibition of BKPyV replication (total infectious BKPyV, FFU titre) ([3]; 125 nM, 250 nM, 500 nM and 1 μM, added 1 hr post infection, MOI 1, 48 hr post infection) | potency against BKPyV replication ([3]; AG270 1 μM or AZ33 125 nM in conjunction with Ilaprazole (5 μM), compared with MAT2A inhibitor alone)
1 | CN(C)CCc1nnc2cc(-c3ccccc3)c3cc(Cl)ccc3n12 [PF-9366] | 10 | 7-10 fold | 60 | 2-3 fold | ~95 | reduction |  | 
2 | COc1ccc(-c2c(Nc3ccccn3)[nH]c3c(C4=CCCCC4)c(-c4ccccc4)nn3c2=O)cc1 [AG-270] | 0.257 |  |  |  |  |  | significant dose dependent inhibition | increased potency

Source: patent US20250221981A1, “MAT2A INHIBITOR AND/OR TSG101 INHIBITOR FOR USE IN ANTIVIRAL THERAPY” (CAMBRIDGE ENTERPRISE LIMITED, priority 2022, published 2025)
